From article PMC6309729 (Biochemistry, 2011)

Tests used:
Type in all cases: biochemical
cpSRP54•cpFtsY complex = target: T1, cpSRP54•cpFtsY complex (Arabidopsis thaliana, UniProt O80842+P37107); test: reciprocally stimulated multiple-turnover GTPase assay; settings: 25 °C, pH 7.5, 100 μM GTP, 100 nM cpSRP54, varied cpFtsY
T1 sequence (P37107 76-564): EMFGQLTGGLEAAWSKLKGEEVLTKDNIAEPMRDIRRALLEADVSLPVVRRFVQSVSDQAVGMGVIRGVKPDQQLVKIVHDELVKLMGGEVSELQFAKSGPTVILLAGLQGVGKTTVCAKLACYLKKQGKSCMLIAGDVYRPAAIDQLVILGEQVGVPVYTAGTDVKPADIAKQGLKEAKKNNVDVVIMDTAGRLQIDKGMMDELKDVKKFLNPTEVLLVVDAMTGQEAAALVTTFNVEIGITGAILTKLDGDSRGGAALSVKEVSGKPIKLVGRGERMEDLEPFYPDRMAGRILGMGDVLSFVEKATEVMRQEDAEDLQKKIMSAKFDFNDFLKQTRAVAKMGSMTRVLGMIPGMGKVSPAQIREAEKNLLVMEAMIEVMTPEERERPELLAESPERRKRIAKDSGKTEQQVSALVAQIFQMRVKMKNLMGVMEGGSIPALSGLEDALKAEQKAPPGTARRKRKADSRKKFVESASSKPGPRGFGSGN
T1 sequence (O80842 41-366): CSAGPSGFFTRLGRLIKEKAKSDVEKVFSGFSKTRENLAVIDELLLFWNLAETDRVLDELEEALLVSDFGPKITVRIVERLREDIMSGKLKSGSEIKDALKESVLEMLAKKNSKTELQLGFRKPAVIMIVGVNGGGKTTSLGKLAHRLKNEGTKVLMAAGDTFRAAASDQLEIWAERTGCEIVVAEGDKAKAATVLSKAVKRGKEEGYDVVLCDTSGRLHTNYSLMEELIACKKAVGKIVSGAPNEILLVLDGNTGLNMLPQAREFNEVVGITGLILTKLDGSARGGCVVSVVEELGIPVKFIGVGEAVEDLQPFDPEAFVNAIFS

cpSRP54 = target: T2, cpSRP54 (Arabidopsis thaliana, UniProt P37107); test: basal GTP binding / GTPase assay; settings: 25 °C, pH 7.5, Mg(OAc)2; cpSRP54 alone
T2 sequence (P37107 76-564): T1 sequence (P37107 76-564)

cpFtsY = target: T3, cpFtsY (Arabidopsis thaliana, UniProt O80842); test: basal GTP binding / GTPase assay; settings: 25 °C, pH 7.5, Mg(OAc)2; cpFtsY alone
T3 sequence (O80842 41-366): T1 sequence (O80842 41-366)

## Nc1nc2c(ncn2[C@@H]2O[C@H](COP(=O)(O)OP(=O)(O)OP(=O)(O)O)[C@@H](O)[C@H]2O)c(=O)[nH]1 [GTP]
cpSRP54•cpFtsY complex
  reciprocally stimulated multiple-turnover GTPase assay: reciprocally stimulated GTPase reaction between cpFtsY and cpSRP
cpSRP54
  basal GTP binding / GTPase assay: basal GTP binding and hydrolysis activity (Tables S3 and S4 of Supporting Information, respectively)
cpFtsY
  basal GTP binding / GTPase assay: basal GTP binding and hydrolysis activity (Tables S3 and S4 of Supporting Information, respectively)
